Laboratory results taken from patent US5306824A, “Biotinylated isocoumarins” (Georgia Tech Research Corporation, priority 1992, dated 1994).

Legend:
[1] = target: T1, chymotrypsin (Bos taurus, UniProt P00766); test: Inactivation of chymotrypsin by biotin-isocoumarins (incubation method); assay type: biochemical, bovine; conditions: 0.1 M Hepes, 0.5 M NaCl, pH 7.5, 5-10% Me2SO, 25° C., two values given for some compounds; for kinact/KI: pH 7.5, inhibitor 20-400 μM, read-out: kobs/[I] Chymotrypsin
Procedure: (§1) Inactivation rates of serine proteases by substituted isocoumarins were measured by the incubation method. An aliquot of inhibitor (25 or 50 μl) in Me2 SO was added to a buffered enzyme solution (0.01-2.3 μM) to initiate the inactivation. Aliquots (50-100 μl) were withdrawn at various intervals and the residual enzymatic activity was measured. Me2 SO concentration in the reaction mixture was 8-12% (v/v). 0.1M Hepes, 0.5M NaCl, pH 7.5 buffer was utilized for the assays of chymotrypsin, cathepsin G (cat G), porcine pancreatic elastase (PPE), human leukocyte elastase (HLE) and rat granule serine proteases. 0.1M Hepes, 0.01M CaCl2, pH 7.5 buffer was utilized for the assays of trypsin and human recombinant (HR) granzyme A. The inhibitor concentrations are shown in the Tables I and II. Peptide nitroanilides with appropriate sequence were used as substrates for various serine proteases. All peptide 4-nitroanilide hydrolysis was measured at 410 nm (ε410 =8800M^-1 cm^-1; Erlanger et al., Arch. Biochem. Biophys. 95, pp 271-278 (1961), incorporated herein by reference). Peptide thioester hydrolysis rates were measured with assay mixtures containing 4,4'-dithiodipyridine (ε324 =19800M^-1 cm^-1; Grasetti & Murray, Arch. Biochem. Biophys. 119, pp. 41-49 (1967), incorporated herein by reference). First order inactivation rate constant (kobs) were obtained from plots of ln (vt /vo) vs time, and the correlation coefficients were greater than 0.98.
(§2) ^a Inhibition was measured in 0.1 M Hepes, 0.5 M NaCl (or 0.01 M
(§3) CaCl2), pH 7.5 buffer, 5-10% Me2 SO and at 25° C.
(§4) SucVal-Pro-NA (0.48 mM) was used as the substrate for chymotrypsin and ca
^b Inhibitor concentrations were 20-400 μM.

[2] = target: T2, human leukocyte elastase (HLE) (Homo sapiens, UniProt P08246); test: Inactivation of human leukocyte elastase by biotin-isocoumarins (incubation method); assay type: biochemical; conditions: inhibitor 1.6-210 μM; pH 7.5, 25° C.; read-out: kobs/[I] HLE
T2 sequence (P08246 30-267): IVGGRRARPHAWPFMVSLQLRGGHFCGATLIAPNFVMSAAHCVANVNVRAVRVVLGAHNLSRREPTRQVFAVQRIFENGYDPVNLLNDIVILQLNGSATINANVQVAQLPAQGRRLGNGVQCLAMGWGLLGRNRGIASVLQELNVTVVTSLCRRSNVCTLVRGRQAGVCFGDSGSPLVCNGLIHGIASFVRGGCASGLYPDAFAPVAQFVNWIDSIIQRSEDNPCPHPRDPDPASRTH
Procedure: as §1, §2, §3
(§5) G. MeOSuc-Ala-Ala-Pro-Val-NA (0.24-0.47 mM) and SucAla-Ala-Ala-NA
(§6) (0.29-0.48 mM) were used as the substrate for HLE and PPE respectively.
^d Inhibitor concentrations were 1.6-210 μM.

[3] = target: T3, trypsin (Bos taurus, UniProt P00760); test: Inactivation of trypsin by biotin-isocoumarins (incubation method); assay type: biochemical; conditions: inhibitor 41-42 μM; 0.1 M Hepes, 0.01 M CaCl2, pH 7.5, 25° C.; read-out: kobs/[I] Trypsin
T3 sequence (P00760 24-246): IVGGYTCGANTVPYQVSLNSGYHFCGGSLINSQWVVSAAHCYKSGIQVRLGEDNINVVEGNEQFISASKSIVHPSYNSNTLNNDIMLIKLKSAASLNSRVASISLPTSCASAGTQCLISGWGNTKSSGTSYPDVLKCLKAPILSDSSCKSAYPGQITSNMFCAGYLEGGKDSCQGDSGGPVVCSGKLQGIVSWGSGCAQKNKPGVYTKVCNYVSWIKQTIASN
Procedure: as §1, §2, §3
ZGlu-Phe-Arg-NA (0.032 mM) was a substrate for trypsin. ZArg-SBzl (0.120
^f Inhibitor concentrations were 41-42 μM.

[4] = test system: Rat Granule Chymase; test: Inhibition of rat granule chymase; assay type: biochemical; conditions: inhibition not time dependent, pH 7.5, 10% Me2SO, 25° C.
Procedure: as §1, with “First order inactivation rate constant (kobs) were obtained from plots of ln (vt /vo) vs time, and the correlation coefficients were greater than 0.98.” left out
(§7) ^a Inhibition was measured in 0.1 M Hepes, 0.5 M NaCl, pH 7.5 buffer, […]

[5] = target: Rat Granule Tryptase; test: Inhibition of rat granule tryptase; assay type: biochemical; conditions: [I] 0.078 mM or 0.2 mM as per table line; pH 7.5, 10% Me2SO, 25° C.
Procedure: as §1, with “First order inactivation rate constant (kobs) were obtained from plots of ln (vt /vo) vs time, and the correlation coefficients were greater than 0.98.” left out
as §7

[6] = target: T1, chymotrypsin; test: Reactivation of inhibited chymotrypsin in buffer and with NH2OH; assay type: biochemical, bovine; conditions: for % of Enzyme Activity Reactivated, Chymotrypsin +NH2OH: 0.4 M NH2OH, immediately after addition; for % of Enzyme Activity Reactivated, Chymotrypsin in buffer: after removal of excess inhibitor, 25° C. for two days
Procedure: (§8) ^a Inhibition was performed at 0.1 M Hepes, 0.5 M NaCl, pH 7.5 buffer
(§9) 10% Me2 SO and 25° C. Reactivation was carried out in the
(§10) presence of 0.4 M of NH2 OH, and occurred immediately after the
(§11) ^b Enzyme activity was measured after removal of excess inhibitor by
(§12) centrifugation at 0° C. with centricon10 microconcentrator and
(§13) staying at 25° C. for two days.

[7] = test system: Rat Granule Chymase; test: Reactivation of inhibited rat granule chymase with NH2OH; assay type: biochemical; conditions: 0.4 M NH2OH, immediately after addition
Procedure: as §8, §9
presence of 0.4 M of NH2 OH, and occurred immediately after the […]

[8] = target: T1, chymotrypsin; test: Effect of streptavidin and avidin on reactivation of inhibited chymotrypsin; assay type: biochemical, bovine; conditions: monitored for two days; for % of Regained Enzyme Activity, Chymotrypsin, +Streptavidin: 3-4 units streptavidin, 2880 min; for % of Regained Enzyme Activity, Chymotrypsin, Buffer: pH 7.5, 8% Me2SO, 25° C.
Procedure: (§14) ^a Percentage of regained enzymatic activity was measured in 0.1 M
(§15) Hepes, 0.5 M NaCl, pH 7.5 buffer, 8% Me2 SO and at 25° C.
(§16) Excess inhibitor was removed from enzymeinhibitor mixture by
(§17) centrifugation twice with Amicon microconcentrator10. Then 3-4 units of
(§18) avidin or strepavidin was added and enzymatic activity was monitored for […]

[9] = target: T4, cathepsin G (cat G) (Homo sapiens, UniProt P08311); test: Inactivation of cathepsin G by biotin-isocoumarins (incubation method); assay type: biochemical; conditions: inhibitor 75-400 μM; pH 7.5, 25° C.; NI = no inhibition after 10 min of incubation; read-out: kobs/[I] Cat. G
T4 sequence (P08311 21-255): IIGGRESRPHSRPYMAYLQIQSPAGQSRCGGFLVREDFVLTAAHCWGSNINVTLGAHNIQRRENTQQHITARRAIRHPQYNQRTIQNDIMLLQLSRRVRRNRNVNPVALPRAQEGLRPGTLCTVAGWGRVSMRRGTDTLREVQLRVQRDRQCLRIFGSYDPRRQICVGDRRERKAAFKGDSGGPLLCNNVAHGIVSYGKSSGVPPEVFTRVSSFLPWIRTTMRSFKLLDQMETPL
Procedure: as §1, §2, §3, §4, §5
^c Inhibitor concentrations were 75-400 μM.
(§19) ^h No inhibition after 10 min of incubation of inhibitor and enzyme.
^i Percentage of inhibition after 10 min of incubation of inhibitor

[10] = target: porcine pancreatic elastase (PPE) (Sus scrofa, UniProt P00772); test: Inactivation of porcine pancreatic elastase by biotin-isocoumarins (incubation method); assay type: biochemical; conditions: inhibitor 38-78 μM; pH 7.5, 25° C.; NI = no inhibition after 10 min of incubation; read-out: kobs/[I] PPE
porcine pancreatic elastase (PPE), sequence (P00772 27-266): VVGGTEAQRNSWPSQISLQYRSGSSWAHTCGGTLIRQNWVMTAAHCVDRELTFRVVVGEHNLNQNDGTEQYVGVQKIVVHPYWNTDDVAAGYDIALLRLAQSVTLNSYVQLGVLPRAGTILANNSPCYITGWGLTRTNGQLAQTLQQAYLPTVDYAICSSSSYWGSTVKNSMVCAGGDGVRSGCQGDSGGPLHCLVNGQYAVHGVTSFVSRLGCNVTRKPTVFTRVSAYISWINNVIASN
Procedure: as §1, §2, §3, §5, §6
^e Inhibitor concentrations were 38-78 μM.
as §19

[11] = target: T5, PPE (Sus scrofa, UniProt P00772); test: Reactivation of inhibited PPE in buffer and with NH2OH; assay type: biochemical, porcine
T5 sequence (P00772 27-266): as above
Procedure: as §8, §9, §10, §11, §12, §13

[12] = target: T5, PPE; test: Effect of streptavidin and avidin on reactivation of inhibited PPE; assay type: biochemical, porcine; conditions: monitored for two days
Procedure: as §14, §15, §16, §17, §18

Row | SMILES | kobs/[I] Chymotrypsin ([1]; inhibitor 20-400 μM) [M⁻¹ s⁻¹] | kinact/KI [1] [M⁻¹ s⁻¹] | kinact/KI [2] [M⁻¹ s⁻¹] | kinact/KI [3] [M⁻¹ s⁻¹] | Rat Granule Chymase % of inhibition ([4]; [I] 0.2 mM) | Rat Granule Tryptase kobs/[I] [5] [M⁻¹ s⁻¹] | % of Enzyme Activity Reactivated, Chymotrypsin +NH2OH [6] [%] | % of Enzyme Activity Reactivated, Chymotrypsin in buffer [6] [%] | % of Enzyme Activity Reactivated, Rat granule chymase +NH2OH [7] | % of Regained Enzyme Activity, Chymotrypsin, +Streptavidin [8] [%] | % of Regained Enzyme Activity, Chymotrypsin, Buffer [8] [%] | kinact/KI [9] [M⁻¹ s⁻¹] | kinact/KI [10] [M⁻¹ s⁻¹] | % of Enzyme Activity Reactivated, PPE +NH2OH ([11]; 0.4 M NH2OH, immediately after addition) [%] | % of Enzyme Activity Reactivated, PPE in buffer ([11]; after removal of excess inhibitor, 25° C. for two days, 2880 min) [%] | % of Regained Enzyme Activity, PPE, +Avidin ([12]; 3-4 units avidin, 2880 min) [%] | % of Regained Enzyme Activity, PPE, +Streptavidin ([12]; 3-4 units streptavidin, 2880 min) [%] | % of Regained Enzyme Activity, PPE, Buffer ([12]; pH 7.5, 8% Me2SO, 25° C.) [%] | Rat Granule Chymase % of inhibition ([4]; [I] 0.078 mM)
1 | O=C(CCCC[C@@H]1SC[C@@H]2NC(=O)N[C@@H]21)Nc1ccc2c(Cl)c(OCCc3ccccc3)oc(=O)c2c1 [Compound 1, 7-biotinylamino-4-chloro-3-(2-phenylethoxy)isocoumarin] | 165 | 330 | 740 | 1.1 | 10-20% | 2 to 3 | 100 | 15 | 100% | 27 | 10 | – | – | – | – | – | – | – | –
2 | CCCOc1oc(=O)c2cc(NC(=O)CCCC[C@@H]3SC[C@@H]4NC(=O)N[C@@H]43)ccc2c1Cl [Compound 2, 7-biotinylamino-4-chloro-3-propoxyisocoumarin] | – | 65 | 19900 | 2.2 | – | – | – | – | – | – | – | 6.7 | 470 | 98 | 35 | 32 | 51 | 35 | –
3 | O=C(CCCC[C@@H]1SC[C@@H]2NC(=O)N[C@@H]21)NCCCCCC(=O)Nc1ccc2c(Cl)c(OCCc3ccccc3)oc(=O)c2c1 [Compound 3, 7-(6-biotinylaminocaproyl)amino-4-chloro-3-(2-phenylethoxy)isocoumarin] | – | – | 670 | 1 | – | 6 to 12 | 100 | 10 | 30-50% | 39 | 15 | – | – | – | – | – | – | – | 30-50%
